Assay results: patent US6956040B2, “Oxazolidinone piperazinyl derivatives as potential antimicrobials” (Ranbaxy Laboratories Limited, priority 2001, dated 2005)
In brackets after ≈: the same amount, converted by molar mass.

Experiments:
Assay in all cases: MIC, agar incorporation method
MRSA 15187 = format: cell-based, Staphylococcus aureus; conditions: MRSA 15187; agar incorporation
Text: (§1) The compounds of the invention display antibacterial activity when tested by the agar incorporation method. The following minimum inhibitory concentrations (μg/ml) were obtained for representative compounds of the invention which are given below in the following tables.
(§2) • 1) S.aureus ATCC 25923—Staphylococus aureus ATCC 25923 • 2) MRSA 15187—Methicillin Resistant Staphylococcus aureus • 3) Ent. faecalis ATCC 29212—Enterococcus faecalis ATCC 29212 • 4) Ent. faecium 6A—Enterococcus faecium 6A Van®, Cipro® • 5) Strep. pne. ATCC 6303—Streptococcus pneumoniae ATCC 6303 • 6) Strep. pyog. ATCC 19615—Streptococcus pyogenes • 7) S. epidermidis—Staphylococcus epidermidis ATCC 12228
(§3) Briefly, the compounds were dissolved in DMSO and doubling dilution of the compounds were incorporated into Meuller Hilton agar before solidification. Inoculum was prepared by suspending 4 to 5 colonies into 5 ml of normal saline solution and adjusting the turbidity to 0.5 Macfarland turbidity standard tables (1.5×10^8 CFU/ml), after appropriate dilutions, 10^4 CFU/spot was transfered into the surface of dried plate and incubated for 18 hours (24 hours for MRSN studies). The concentration showing no growth of the inoculated culture was recorded as the MIC. Appropriate ATCC standard strains were simultaneously tested and result recorded only when the MIC's against standard antibiotics were within the acceptable range.

S. aureus 25923 = format: cell-based, Staphylococcus aureus; conditions: S. aureus 25923; agar incorporation
Text: as §1, §2, §3

S. pyogenes 19615 = format: cell-based, Streptococcus pyogenes; conditions: S. pyogenes 19615; agar incorporation
Text: as §1, §2, §3

E. faecalis 29212 = format: cell-based, Enterococcus faecalis; conditions: E. faecalis 29212; agar incorporation
Text: as §1, §2, §3

VRE 6A = format: cell-based, Enterococcus faecium; conditions: VRE 6A; agar incorporation
Text: as §1, §2, §3

MRSA 33 = format: cell-based, Staphylococcus aureus; conditions: MRSA 33; agar incorporation
Description: as §1, §3

MRSA 562 = format: cell-based, Staphylococcus aureus; conditions: MRSA 562; agar incorporation; Table 1
Description: as §1, §3

S. pneum AB 34 = format: cell-based, Streptococcus pneumoniae; conditions: S. pneum AB 34; agar incorporation
Description: as §1, §3

S. pneum 6303 = format: cell-based, Streptococcus pneumoniae; conditions: S. pneum 6303; agar incorporation
Text: as §1, §2, §3

SMILES | MIC (MRSA 15187) [µg/mL] | MIC (S. aureus 25923) [µg/mL] | MIC (S. pyogenes 19615) [µg/mL] | MIC (E. faecalis 29212) [µg/mL] | MIC (VRE 6A) [µg/mL] | MIC (MRSA 33) [µg/mL] | MIC (MRSA 562) [µg/mL] | MIC (S. pneum AB 34) [µg/mL] | MIC (S. pneum 6303) [µg/mL]
CC(=O)NC[C@H]1CN(c2ccc(N3C[C@@H]4[C@@H](CN(C)C(=O)Cc5cccs5)[C@@H]4C3)c(F)c2)C(=O)O1 [Compound No. 38, (S)-N-[[3-[3-Fluoro[4-[3-(1α,5α,6α)-6-[N-(2-thiopheneacetyl)-N-methyl]aminomethyl]-3-azabicyclo-[3.1.0]hexane]phenyl]-2-oxo-5-oxazolidinyl]methyl]acetamide] | 4 (≈ 7.99 µM) | 4 (≈ 7.99 µM) | 1 (≈ 2 µM) | 4 (≈ 7.99 µM) | 4 (≈ 7.99 µM) | 4 (≈ 7.99 µM) | 4 (≈ 7.99 µM) | 1 (≈ 2 µM) | 1 (≈ 2 µM)
CC(=O)NC[C@H]1CN(c2ccc(N3CCN(Cc4cc(Br)cs4)CC3)c(F)c2)C(=O)O1 [Compound No. 14, (S)-N-[[3-[3-Fluoro-4-[N-1[4-{2-thienyl(4-bromo)methyl}]-piperazinyl]phenyl]-2-oxo-5-oxazolidinyl]methyl]acetamide] | 2 (≈ 3.91 µM) | 4 (≈ 7.82 µM) | 2 (≈ 3.91 µM) | 2 (≈ 3.91 µM) | 2 (≈ 3.91 µM) | 2 (≈ 3.91 µM) | 2 (≈ 3.91 µM) | 4 (≈ 7.82 µM) | 4 (≈ 7.82 µM)
CC(=O)NC[C@H]1CN(c2ccc(N3CCN(Cc4cccs4)CC3)c(F)c2)C(=O)O1 [Compound No. 12, (S)-N-[[3-[3-Fluoro-4-[N-1[4-(2-thienylmethyl)]piperazinyl]-phenyl]-2-oxo-5-oxazolidinyl]methyl]acetamide] | 8 (≈ 18.5 µM) | 8 (≈ 18.5 µM) | 4 (≈ 9.25 µM) | 8 (≈ 18.5 µM) | 8 (≈ 18.5 µM) | 8 (≈ 18.5 µM) | 8 (≈ 18.5 µM) | 8 (≈ 18.5 µM) | 8 (≈ 18.5 µM)
CC(=O)NC[C@H]1CN(c2ccc(N3CCN(C(=O)c4ccc(CCl)o4)CC3)c(F)c2)C(=O)O1 [Compound No. 05, (S)-N-[[3-Fluoro-4-[N-1[4-(5-chloromethyl-2-furoyl)piperazinyl]phenyl]-2-oxo-5-oxazolidinyl]methyl]acetamide] | 4 (≈ 8.35 µM) | 16 (≈ 33.4 µM) | 4 (≈ 8.35 µM) | 8 (≈ 16.7 µM) | 8 (≈ 16.7 µM) | 4 (≈ 8.35 µM) | – | 4 (≈ 8.35 µM) | 4 (≈ 8.35 µM)
CC(=O)NC[C@H]1CN(c2ccc(N3CCN(Cc4ccc(Cl)s4)CC3)c(F)c2)C(=O)O1 [Compound No. 10, (S)-N[[3-[3-Fluoro-4-[N-1[4-{2-thienyl(5-chloro)methyl}]-piperazinyl]phenyl]2-oxo-5-oxazolidinyl]methyl]acetamide] | 4 (≈ 8.57 µM) | 8 (≈ 17.1 µM) | 1 (≈ 2.14 µM) | 8 (≈ 17.1 µM) | 4 (≈ 8.57 µM) | 4 (≈ 8.57 µM) | – | 8 (≈ 17.1 µM) | 4 (≈ 8.57 µM)
CC(=O)NC[C@H]1CN(c2ccc(N3CCN(Cc4ccc(C=NO)o4)CC3)c(F)c2)C(=O)O1 [Compound No. 60, (S)-N-[[3-[3-Fluoro-4-[N-1-[4-(2-furyl-(5-aldoxime)methyl}]piperazinyl]phenyl]-2-oxo-5-oxazolidinyl]methyl]acetamide] | 2 (≈ 4.35 µM) | 2 (≈ 4.35 µM) | 4 (≈ 8.71 µM) | 8 (≈ 17.4 µM) | 16 (≈ 34.8 µM) | 2 (≈ 4.35 µM) | – | 8 (≈ 17.4 µM) | 8 (≈ 17.4 µM)
CC(=O)NC[C@H]1CN(c2ccc(N3CCN(Cc4ccc([N+](=O)[O-])s4)CC3)c(F)c2)C(=O)O1 [Compound No. 23, (S)-N[[3-[3-Fluoro-4-[N-1[4-{2-thienyl(5-nitro)methyl}]piperazinyl]phenyl]2-oxo-5-oxazolidinyl]methyl]acetamide] | 8 (≈ 16.8 µM) | 8 (≈ 16.8 µM) | 1 (≈ 2.09 µM) | 8 (≈ 16.8 µM) | 8 (≈ 16.8 µM) | 8 (≈ 16.8 µM) | – | 8 (≈ 16.8 µM) | 8 (≈ 16.8 µM)
CC(=O)NC[C@H]1CN(c2ccc(N3CC4C(C3)C4N(C)C(=O)c3ccsc3)c(F)c2)C(=O)O1 (stereo partly drawn) [Compound No. 73, (S)-N-[[3-[3-Fluoro[4-[3-(1α,5α,6α)-6-[N-(3-thienoyl)-N-methyl]amino]-3-azabicyclo-[3.1.0]hexane]phenyl]-2-oxo-5-oxazolidinyl]methyl]acetamide] | 8 (≈ 16.9 µM) | 8 (≈ 16.9 µM) | 1 (≈ 2.12 µM) | 8 (≈ 16.9 µM) | 8 (≈ 16.9 µM) | 8 (≈ 16.9 µM) | – | 8 (≈ 16.9 µM) | 4 (≈ 8.46 µM)
CC(=O)NC[C@H]1CN(c2ccc(N3C[C@@H]4[C@H](C3)[C@H]4N(C)C(=O)c3ccc(Br)o3)c(F)c2)C(=O)O1 [Compound No. 33, (S)-N-[[3-[3-Fluoro[4-[3-(1α,5α,6α)-6-[N-(5-bromo-2-furoyl)-N-methyl]amino]-3-azabicyclo-[3.1.0]hexane]phenyl]-2-oxo-5-oxazolidinyl]methyl]acetamide] | 4 (≈ 7.47 µM) | 4 (≈ 7.47 µM) | 0.5 (≈ 0.934 µM) | 4 (≈ 7.47 µM) | 4 (≈ 7.47 µM) | 4 (≈ 7.47 µM) | – | 4 (≈ 7.47 µM) | 8 (≈ 14.9 µM)
COC(=O)Cc1ccc(NC(=O)ON=Cc2ccc(CN3CCN(c4ccc(N5C[C@H](CNC(C)=O)OC5=O)cc4F)CC3)o2)cc1 [Compound No. 61] | 8 (≈ 12.3 µM) | 8 (≈ 12.3 µM) | 8 (≈ 12.3 µM) | 8 (≈ 12.3 µM) | 8 (≈ 12.3 µM) | 8 (≈ 12.3 µM) | – | 8 (≈ 12.3 µM) | 8 (≈ 12.3 µM)
CC(=O)NC[C@H]1CN(c2ccc(N3CC4C(C3)C4N(C)C(=O)c3ccoc3)c(F)c2)C(=O)O1 (stereo partly drawn) [Compound No. 32, (S)-N-[[3-[3-Fluoro[4-[3-(1α, 5α, 6α)-6-[N-(3-furoyl)-N-methyl]amino]-3-azabicyclo-[3.1.0]hexane]phenyl]-2-oxo-5-oxazolidinyl]methyl]acetamide] | 8 (≈ 17.5 µM) | 8 (≈ 17.5 µM) | 1 (≈ 2.19 µM) | 8 (≈ 17.5 µM) | 8 (≈ 17.5 µM) | 8 (≈ 17.5 µM) | – | 4 (≈ 8.76 µM) | 4 (≈ 8.76 µM)
CC(=O)NC[C@H]1CN(c2ccc(N3CCC(N(C)Cc4ccc([N+](=O)[O-])s4)CC3)c(F)c2)C(=O)O1 [Compound No. 51, (S)-N-[[3-[4-[4-(N-methyl-N-2-thienyl(5-nitro)methyl)-aminopiperidine-1-yl]-3-fluorophenyl]-2oxo-oxazolidin-5-yl]methyl]acetamide] | 1 (≈ 1.98 µM) | 2 (≈ 3.96 µM) | 0.5 (≈ 0.989 µM) | 4 (≈ 7.91 µM) | 4 (≈ 7.91 µM) | 1 (≈ 1.98 µM) | 1 (≈ 1.98 µM) | 2 (≈ 3.96 µM) | –
CC(=O)NC[C@H]1CN(c2ccc(N3CC4C(C3)C4N(C)Cc3ccc(C=O)o3)c(F)c2)C(=O)O1 (stereo partly drawn) [Compound No. 72, (S)-N-[[3-[3-Fluoro[4-[3-(1α,5α,6α)-6-[N-(5-formyl-2-furylmethyl)-N-methyl]amino]-3-azabicyclo-[3.1.0]hexane]phenyl]-2-oxo-5-oxazolidinyl]methyl]acetamide] | 4 (≈ 8.5 µM) | 8 (≈ 17 µM) | 0.25 (≈ 0.531 µM) | 8 (≈ 17 µM) | 8 (≈ 17 µM) | 4 (≈ 8.5 µM) | – | 4 (≈ 8.5 µM) | 4 (≈ 8.5 µM)
CC(=O)NC[C@H]1CN(c2ccc(N3CCN(Cc4ccc([N+](=O)[O-])o4)CC3)c(F)c2)C(=O)O1.O=C(O)CC(O)(CC(=O)O)C(=O)O [Compound No. 17] | 2 | 2 | 1 | 2 | 4 | 2 | – | 1 | 2
CC(=O)NC[C@H]1CN(c2ccc(N3CCN(C(=O)c4ccco4)CC3)c(F)c2)C(=O)O1 [Compound No. 01, (S)-N-[[3-[3-Fluoro-4-[N-1-[4-(2-furoyl)piperazinyl]]-phenyl]-2-oxo-5-oxazolidinyl]methyl]acetamide] | 2 (≈ 4.65 µM) | 2 (≈ 4.65 µM) | 1 (≈ 2.32 µM) | 2 (≈ 4.65 µM) | 2 (≈ 4.65 µM) | 4 (≈ 9.29 µM) | – | 1 (≈ 2.32 µM) | 2 (≈ 4.65 µM)
